The values below come from US9271971B2, “Pyrido[3,4-B]indoles and methods of use” (Medivation Technologies, Inc., priority 2009, dated 2016).

The target in experiment [1] is human recombinant serotonin (5-Hydroxytryptamine) 5-HT7 receptor (Homo sapiens, UniProt P34969). Put plainly: Serotonin 5-HT7 radioligand binding assay. The conditions noted are these: [3H]LSD specific binding; for inhibition at 1 µM: read-out: Percent Inhibition of ligand binding, Serotonin (1 μM ligand concentration) 5-HT7. The procedure: To evaluate in radioligand binding assays the activity of compounds of the invention, human recombinant serotonin (5-Hydroxytryptamine) 5-HT7 receptor expressed in Chinese hamster ovary (CHO) cells [Roth, B. L. et al., J. Pharmacol. Exp. Ther. (1994), 268:1403; Shen, Y. et al., J. Biol. Chem. (1993), 268:18200] in a modified Tris-HCl buffer (50 mM Tris-HCl, pH 7.4, 10 mM MgCl2, 0.5 mM EDTA) was used. Compounds of invention were incubated with 5.5 nM [^3H] Lysergic acid diethylamide (LSD) for 2 h at 25° C. Non-specific binding was estimated in the presence of 10 μM Serotonin (5-HT). Receptor proteins were filtered and washed, the filters were then counted to determine [^3H]LSD specifically bound. Compounds were screened at 1 μM or lower, using 1% DMSO as vehicle. Biochemical assay results are presented as the percent inhibition of specific binding in Table 4.
human recombinant serotonin (5-Hydroxytryptamine) 5-HT7 receptor, sequence (P34969 whole entry): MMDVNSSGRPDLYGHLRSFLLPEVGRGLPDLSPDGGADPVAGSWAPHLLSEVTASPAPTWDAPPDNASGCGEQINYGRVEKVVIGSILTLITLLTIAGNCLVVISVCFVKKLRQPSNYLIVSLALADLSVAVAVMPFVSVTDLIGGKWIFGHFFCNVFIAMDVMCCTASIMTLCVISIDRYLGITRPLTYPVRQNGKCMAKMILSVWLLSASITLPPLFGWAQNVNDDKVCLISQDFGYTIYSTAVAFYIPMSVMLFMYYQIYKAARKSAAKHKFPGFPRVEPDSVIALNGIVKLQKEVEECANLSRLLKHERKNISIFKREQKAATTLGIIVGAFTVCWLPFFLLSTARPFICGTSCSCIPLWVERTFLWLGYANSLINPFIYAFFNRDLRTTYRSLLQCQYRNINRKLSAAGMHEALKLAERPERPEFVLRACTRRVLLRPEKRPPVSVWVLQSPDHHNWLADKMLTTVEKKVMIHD

Experiment [2] addresses human recombinant histamine H1 receptor (Homo sapiens, UniProt P35367). As to the kind of experiment: Histamine H1 radioligand binding assay. The settings on record: [3H]Pyrilamine specific binding; for inhibition at 1 µM: read-out: Percentage Inhibition, Histamine Binding (1 μM) H1. The procedure:
To evaluate in radioligand binding assays the activity of compounds of the invention, human recombinant histamine H1 receptor expressed in Chinese hamster ovary (CHO) cells [De Backer, M. D. et al., Biochem. Biophys. Res. Comm. (1993), 197(3):1601] in a modified Tris-HCl buffer (50 mM Tris-HCl, pH 7.4, 2 mM MgCl2, 100 mM NaCl, 250 mM Sucrose) was used. Compounds of the invention were incubated with 1.2 nM [^3H]Pyrilamine for 180 min. at 25° C. Non-specific binding was estimated in the presence of 1 μM pyrilamine. Receptor proteins were filtered and washed, the filters were then counted to determine [^3H]Pyrilamine specifically bound. Compounds were screened at 1 μM or lower, using 1% DMSO as vehicle. Biochemical assay results are presented as the percent inhibition of specific binding in Table 2.

human recombinant histamine H1 receptor, sequence (P35367 whole entry): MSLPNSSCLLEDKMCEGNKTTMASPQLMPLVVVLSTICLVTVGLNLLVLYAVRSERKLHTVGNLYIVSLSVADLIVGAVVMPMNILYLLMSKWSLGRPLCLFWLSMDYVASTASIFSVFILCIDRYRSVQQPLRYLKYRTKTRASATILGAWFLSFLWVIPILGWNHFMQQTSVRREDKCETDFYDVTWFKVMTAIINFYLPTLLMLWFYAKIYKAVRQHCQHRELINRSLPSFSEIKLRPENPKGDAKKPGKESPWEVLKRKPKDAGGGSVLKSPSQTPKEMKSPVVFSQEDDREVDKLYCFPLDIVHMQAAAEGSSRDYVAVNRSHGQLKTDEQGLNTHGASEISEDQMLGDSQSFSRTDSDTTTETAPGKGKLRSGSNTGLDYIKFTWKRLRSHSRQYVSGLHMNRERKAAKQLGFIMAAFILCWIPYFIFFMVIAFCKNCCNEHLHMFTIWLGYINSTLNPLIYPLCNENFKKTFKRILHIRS

Take `C/C(=C\n1c2c(c3cc(C)ccc31)C1CCN(C2)C1)c1ccc(Cl)cc1Cl` (centres unmarked) [Compound 34]: the “Percent Inhibition of ligand binding, Serotonin (1 μM ligand concentration) 5-HT7” value in experiment [1] amounted to 86%. For the same compound, in experiment [2], the “Percentage Inhibition, Histamine Binding (1 μM) H1” value (“Percentage Inhibition” for short) is 34%. For the compound `Cc1ccc2c(c1)c1c(n2CC(C)(O)c2ccc(F)cc2F)CN2CCC1C2` (centres unmarked) [Compound 17], in experiment [2], the inhibition at 1 µM worked out at 16%. Same read-out and setting: the result for `Cc1ccc2c(c1)c1c(n2CC(=O)N(C)C)CN2CCC1C2` (centres unmarked) [Compound 27] reads 10%; that for `Cc1ccc2c(c1)c1c(n2CC(=O)N2CCNCC2)CN2CCC1C2` (centres unmarked) [Compound 24], 5%.

Take `Cc1ccc2c(c1)c1c(n2C#Cc2ccc(Cl)cc2)CN2CCC1C2` (centres unmarked) [Compound 35]: the inhibition at 1 µM in experiment [1] was 35%; in experiment [2] it was 0%. On to `Cc1ccc2c(c1)c1c(n2CC(=O)N2CCOCC2)CN2CCC1C2` (centres unmarked) [Compound 26], for which the inhibition at 1 µM in experiment [2] worked out at 17%. Same read-out and setting: with `Cc1ccc2c(c1)c1c(n2CC(=O)NC2CCCCC2)CN2CCC1C2` (centres unmarked) [Compound 23] the figure was 13%; with `Cc1ccc(/C=C/n2c3c(c4cc(C)ccc42)C2CCN(C3)C2)cc1` (centres unmarked) [Compound 10], 70%. As for `C=C(Cn1c2c(c3cc(C)ccc31)C1CCN(C2)C1)c1ccc(F)cc1` (centres unmarked) [Compound 3], in experiment [2], the “Percentage Inhibition” value is given as 60% and the inhibition at 1 µM was determined as 59%. In the case of `Cc1ccc2c(c1)c1c(n2CCc2ccccn2)CN2CCC1C2` (centres unmarked) [Compound 11], in experiment [2], the inhibition at 1 µM was 77%. Same read-out and setting: the result for `Cc1ccc2c(c1)c1c(n2CC(C)(O)c2ccc(Cl)cc2Cl)CN2CCC1C2` (centres unmarked) [Compound 14] reads 37%; that for `Cc1ccc2c(c1)c1c(n2CC(C)(O)c2ccc(Cl)cc2)CN2CCC1C2` (centres unmarked) [Compound 16], 20%; that for `Cc1ccc2c(c1)c1c(n2CCc2ccc(C)nc2)CN2CCC1C2` (centres unmarked) [Compound 12], 59%. The same measure, in the same setting: with `COc1ccc(C(O)Cn2c3c(c4cc(C)ccc42)C2CCN(C3)C2)cc1F` (centres unmarked) [Compound 6] the figure was 86%. On to `C/C(=C\n1c2c(c3cc(C)ccc31)C1CCN(C2)C1)c1ccc(F)c(F)c1` (centres unmarked) [Compound 39], for which the inhibition at 1 µM is 96% in experiment [1] and 26% in experiment [2]. With `Cc1ccc2c(c1)c1c(n2CC(=O)N2CCCCC2)CN2CCC1C2` (centres unmarked) [Compound 7], the inhibition at 1 µM in experiment [2] was 17%. In the case of `Cc1ccc(C(O)Cn2c3c(c4cc(C)ccc42)C2CCN(C3)C2)cc1` (centres unmarked) [Compound 5], the inhibition at 1 µM in experiment [2] was 48%. As for `Cc1ccc2c(c1)c1c(n2CC(=O)c2ccc(Cl)cc2)CN2CCC1C2` (centres unmarked) [Compound 29], the inhibition at 1 µM amounted to 81% in experiment [1] and 56% in experiment [2]. For `COc1ccc(C(O)Cn2c3c(c4cc(C)ccc42)C2CCN(C3)C2)cc1OC` (centres unmarked) [Compound 8], in experiment [2], the inhibition at 1 µM was 33%. As to `Cc1ccc2c(c1)c1c(n2CC(O)c2ccc(F)cc2)CN2CCC1C2` (centres unmarked) [Compound 31], the inhibition at 1 µM is 73% in experiment [1] and 42% in experiment [2].

Consider `Cc1ccc2c(c1)c1c(n2CCc2ccncc2)CN2CCC1C2` (centres unmarked) [Compound 30], for which the inhibition at 1 µM in experiment [1] amounted to 95%; in experiment [2] it was 76%. `Cc1ccc2c(c1)c1c(n2CCc2ccc(C(F)(F)F)nc2)CN2CCC1C2` (centres unmarked) [Compound 1]: the inhibition at 1 µM in experiment [2] was 32%.

Take `Cc1ccc2c(c1)c1c(n2CCc2cncc(F)c2)CN2CCC1C2` (centres unmarked) [Compound 9]: the inhibition at 1 µM in experiment [2] was 89%.

For `C/C(=C\n1c2c(c3cc(C)ccc31)C1CCN(C2)C1)c1cccnc1` (centres unmarked) [Compound 42], the inhibition at 1 µM in experiment [1] was found to be 92%; in experiment [2], 20%. In the same order, the values of `Cc1ccc2c(c1)c1c(n2C(=O)Cc2ccc(F)cc2)CN2CCC1C2` (centres unmarked) [Compound 43] are 41% and 16%. For `Cc1ccc2c(c1)c1c(n2CC(C)(O)c2ccc(F)cc2)CN2CCC1C2` (centres unmarked) [Compound 2], the inhibition at 1 µM in experiment [2] worked out at 21%. `C/C(=C\n1c2c(c3cc(C)ccc31)C1CCN(C2)C1)c1ccc(F)cc1` (centres unmarked) [Compound 22]: in experiment [2], the “Percentage Inhibition” value turned out to be 58% and the inhibition at 1 µM was 52%. Take `Cc1ccc2c(c1)c1c(n2CC(C)(O)c2ccc(F)c(Cl)c2)CN2CCC1C2` (centres unmarked) [Compound 18]: the inhibition at 1 µM in experiment [2] was 21%. With `Cc1ccc2c(c1)c1c(n2CC(=O)c2ccc(F)cc2)CN2CCC1C2` (centres unmarked) [Compound 28], the figures for the inhibition at 1 µM in experiment [1] and in experiment [2] were 82% and 64%, respectively.

With `COc1ccc(/C(C)=C/n2c3c(c4cc(C)ccc42)C2CCN(C3)C2)cc1F` (centres unmarked) [Compound 41], the inhibition at 1 µM in experiment [1] amounted to 90%; in experiment [2], 21%. For the compound `Cc1ccc2c(c1)c1c(n2CC(C)(O)c2ccc(Cl)c(Cl)c2)CN2CCC1C2` (centres unmarked) [Compound 13], the inhibition at 1 µM in experiment [2] turned out to be 24%. On the same count and under the same terms, with `Cc1ccc2c(c1)c1c(n2CC(O)c2ccccc2)CN2CCC1C2` (centres unmarked) [Compound 4] the figure was 67%. Still for that read-out and setting: the result for `Cc1ccc2c(c1)c1c(n2CC(=O)N2CCC(C)CC2)CN2CCC1C2` (centres unmarked) [Compound 25] reads 30%; that for `Cc1ccc2c(c1)c1c(n2CC(=O)c2ccccc2)CN2CCC1C2` (centres unmarked) [Compound 21], 40%. For the compound `Cc1ccc(C(C)(O)Cn2c3c(c4cc(C)ccc42)C2CCN(C3)C2)cc1` (centres unmarked) [Compound 20], the inhibition at 1 µM in experiment [2] was determined as 21%. Still for that read-out and setting: the result for `Cc1ccc2c(c1)c1c(n2CCc2nc(-c3ccccc3)cs2)CN2CCC1C2` (centres unmarked) [Compound 19] reads 82%; that for `Cc1ccc2c(c1)c1c(n2CC(C)(O)c2ccc(F)c(F)c2)CN2CCC1C2` (centres unmarked) [Compound 15], 82%.

Take `C/C(=C/n1c2c(c3cc(C)ccc31)C1CCN(C2)C1)c1ccccc1F` (centres unmarked) [Compound 37]: the values for the inhibition at 1 µM in experiment [1] and in experiment [2] were 93% and 78%, respectively. The corresponding values for `C/C(=C\n1c2c(c3cc(C)ccc31)C1CCN(C2)C1)c1ccc(Cl)c(Cl)c1` (centres unmarked) [Compound 40] are 95% and 57%.
